Reference: patent US20230089247A1, “NOVEL COMPOUNDS SUITABLE FOR THE TREATMENT OF DYSLIPIDEMIA” (ZYDUS LIFESCIENCES LIMITED, priority 2019, published 2023)

Target: PCSK9 (Homo sapiens, UniProt Q8NBP7)
Assay: BODIPY-LDL uptake assay in HepG2 cells
Type: cell-based
Conditions: 5 μg/ml PCSK9, BODIPY-LDL
Procedure: BODIPY-LDL Uptake Assay in HepG2 Cells.
An established assay for PCSK9 inhibition features uptake of fluorescently labeled LDL nanoparticles (BODIPY-LDL) by hepatocytes and uptake of the BODIPY-containing particles is maximized in the absence of PCSK9.
In the LDL uptake assay, HepG2 cells were seeded at a density of 6×10^4 cells/well in a 96-well plate. After 24 h, the test compounds at various concentrations were pre-incubated with 5 μg/ml PCSK9 in 0.2% DMSO for 60 min prior to the addition on to the cells. After 16 h the medium was removed and 1 μg/ml BODIPY-LDL (Invitrogen) in serum free media was added and incubated for 5 h. Then the cells were washed twice with 0.25% BSA in PBS. Then the fluorescence of the cells in PBS was measured using TECAN multimode reader (Excitation: 485 nm and Emission: 520 nm). The readings were taken in triplicate and the final values were normalized with the protein concentration from respective wells. The wells without test compound containing external PCSK9 is considered as zero uptake and the one without PCSK9 was considered as 100% uptake. The percentage increase in LDL uptake for the test compounds were calculated using these values.

Chain of PCSK9 (Q8NBP7 153-692): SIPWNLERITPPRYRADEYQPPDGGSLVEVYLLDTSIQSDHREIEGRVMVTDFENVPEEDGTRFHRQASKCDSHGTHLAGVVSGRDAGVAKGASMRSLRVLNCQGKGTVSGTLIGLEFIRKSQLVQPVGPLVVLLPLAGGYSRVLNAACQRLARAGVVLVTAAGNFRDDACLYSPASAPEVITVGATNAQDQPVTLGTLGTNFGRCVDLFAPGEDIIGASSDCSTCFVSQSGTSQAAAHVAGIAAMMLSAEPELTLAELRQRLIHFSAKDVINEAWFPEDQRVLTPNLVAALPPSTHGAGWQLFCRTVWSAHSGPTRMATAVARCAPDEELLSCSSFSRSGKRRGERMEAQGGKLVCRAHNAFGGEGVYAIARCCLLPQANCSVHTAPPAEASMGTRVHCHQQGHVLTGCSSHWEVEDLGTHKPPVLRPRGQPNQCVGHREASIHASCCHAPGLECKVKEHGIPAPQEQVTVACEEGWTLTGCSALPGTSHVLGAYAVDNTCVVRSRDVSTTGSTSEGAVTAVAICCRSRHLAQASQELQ

## COC1(c2ccc(C3(O)CCN(c4ccc(C(F)(F)F)cc4)CC3)cc2)COC1 [Example 73, 4-(4-(3-methoxyoxetan-3-yl)phenyl)-1-(4-(trifluoromethyl)phenyl) piperidin-4-ol]
1 μM test compound
  % increase in LDL Uptake: 0%
10 μM test compound
  % increase in LDL Uptake: 8%
30 μM test compound
  % increase in LDL Uptake: 0%

## COC1(c2ccc(NC(=O)N3CC4CN(c5ccc(C(F)(F)F)cc5)CC4C3)cc2)COC1 (stereo not drawn) [Example 74, N-(4-(3-methoxyoxetan-3-yl)phenyl)-5-(4-(trifluoromethyl)phenyl) hexahydropyrrolo[3,4-c]pyrrole-2(1H)-carboxamide]
1 μM test compound
  % increase in LDL Uptake: 34%
10 μM test compound
  % increase in LDL Uptake: 42%
30 μM test compound
  % increase in LDL Uptake: 100%

## O=C(Nc1ccc(C2(O)COC2)cc1)N1CC2CN(c3ccc(C(F)(F)F)cc3)CC2C1 (stereo not drawn) [Example 75, N-(4-(3-hydroxyoxetan-3-yl)phenyl)-5-(4-(trifluoromethyl)phenyl) hexahydropyrrolo[3,4-c]pyrrole-2(1H)-carboxamide]
1 μM test compound
  % increase in LDL Uptake: 20%
10 μM test compound
  % increase in LDL Uptake: 38%
30 μM test compound
  % increase in LDL Uptake: 27%

## O=C(O)c1cc(C2(O)COC2)ccc1N1CCC(c2ccc(C(F)(F)F)cc2)CC1 [Example 77, 5-(3-hydroxyoxetan-3-yl)-2-(4-(4-(trifluoromethyl)phenyl)piperidin-1-yl)benzoic acid]
1 μM test compound
  % increase in LDL Uptake: 0%
10 μM test compound
  % increase in LDL Uptake: 13%
30 μM test compound
  % increase in LDL Uptake: 37%

## OC1(c2cc(N3CCOCC3)cc(N3CCC(c4ccc(C(F)(F)F)cc4)CC3)c2)COC1 [Example 84, 3-(3-morpholino-5-(4-(4-(trifluoromethyl)phenyl)piperidin-1-yl)phenyl) oxetan-3-ol]
1 μM test compound
  % increase in LDL Uptake: 6%
10 μM test compound
  % increase in LDL Uptake: 13%
30 μM test compound
  % increase in LDL Uptake: 17%

## O=C(c1ccc(C2(O)COC2)cc1)N1Cc2cn(-c3ccc(C(F)(F)F)cc3)nc2C1 [Example 89, (4-(3-hydroxyoxetan-3-yl)phenyl)(2-(4-(trifluoromethyl)phenyl)-2,6-dihydropyrrolo[3,4-c]pyrazol-5(4H)-yl)methanone]
1 μM test compound
  % increase in LDL Uptake: 0%
10 μM test compound
  % increase in LDL Uptake: 5%
30 μM test compound
  % increase in LDL Uptake: 159%

## COC1(c2ccc(C(=O)N3CC4CC(OC)(c5ccc(C(F)(F)F)cc5)CC4C3)cc2)COC1 (stereo not drawn) [Example 92, (5-methoxy-5-(4-(trifluoromethyl)phenyl)hexahydrocyclopenta[c]pyrrol-2(1H)-yl)(4-(3-methoxyoxetan-3-yl)phenyl)methanone]
1 μM test compound
  % increase in LDL Uptake: −2%
10 μM test compound
  % increase in LDL Uptake: −8%
30 μM test compound
  % increase in LDL Uptake: 64%

## O=C(c1ccc(C2(O)COC2)cc1)N1Cc2cn(-c3ccc(C(F)(F)F)cc3)cc2C1 [Example 93, (4-(3-hydroxyoxetan-3-yl)phenyl)(5-(4-(trifluoromethyl)phenyl)-3,5-dihydropyrrolo[3,4-c]pyrrol-2(1H)-yl)methanone]
1 μM test compound
  % increase in LDL Uptake: 0%
10 μM test compound
  % increase in LDL Uptake: 90%
30 μM test compound
  % increase in LDL Uptake: 144%

## O=C(c1cccc(C2(O)COC2)c1)N1CC2=C(C1)CN(c1ccc(C(F)(F)F)cc1)C2 [Example 96, (3-(3-hydroxyoxetan-3-yl)phenyl)(5-(4-(trifluoromethyl)phenyl)-3,4,5,6-tetrahydropyrrolo[3,4-c]pyrrol-2(1H)-yl)methanone]
1 μM test compound
  % increase in LDL Uptake: 0%
10 μM test compound
  % increase in LDL Uptake: 28%
30 μM test compound
  % increase in LDL Uptake: 75%

## COC1(c2cccc(C(=O)N3CC4=C(C3)CN(c3ccc(C(F)(F)F)cc3)C4)c2)COC1 [Example 97, (3-(3-methoxyoxetan-3-yl)phenyl)(5-(4-(trifluoromethyl)phenyl)-3,4,5,6-tetrahydropyrrolo[3,4-c]pyrrol-2(1H)-yl)methanone]
1 μM test compound
  % increase in LDL Uptake: 0%
10 μM test compound
  % increase in LDL Uptake: 0%
30 μM test compound
  % increase in LDL Uptake: 24%

## O=S(=O)(c1ccc(C2(O)COC2)cc1)N1CC2CN(c3ccc(C(F)(F)F)cc3)CC2C1 (stereo not drawn) [Example 98, 3-(4-((5-(4-(trifluoromethyl)phenyl)hexahydropyrrolo[3,4-c]pyrrol-2(1H)-yl)sulfonyl)phenyl)oxetan-3-ol]
1 μM test compound
  % increase in LDL Uptake: 0%
10 μM test compound
  % increase in LDL Uptake: 124%
30 μM test compound
  % increase in LDL Uptake: 3%

## O=C(c1ccc(C2(O)COC2)cc1)N1CCC2(CC1)CCN(c1ccc(C(F)(F)F)cc1)CC2 [Example 99, (4-(3-hydroxyoxetan-3-yl)phenyl)(9-(4-(trifluoromethyl)phenyl)-3,9-diazaspiro[5.5]undecan-3-yl)methanone]
1 μM test compound
  % increase in LDL Uptake: 50%
10 μM test compound
  % increase in LDL Uptake: 0%
30 μM test compound
  % increase in LDL Uptake: 0%

## O=C(c1cccc(C2(O)COC2)c1)N1CCC2(CC1)CCN(c1ccc(C(F)(F)F)cc1)CC2 [Example 100, (3-(3-hydroxyoxetan-3-yl)phenyl)(9-(4-(trifluoromethyl)phenyl)-3,9-diazaspiro[5.5]undecan-3-yl)methanone]
1 μM test compound
  % increase in LDL Uptake: 29%
10 μM test compound
  % increase in LDL Uptake: 0%
30 μM test compound
  % increase in LDL Uptake: 0%

## O=C(c1ccc(C2(O)COC2)cc1)N1CCC(c2ccc(C(F)(F)F)cc2)C1 (stereo not drawn) [Example 102, (4-(3-hydroxyoxetan-3-yl)phenyl)(3-(4-(trifluoromethyl)phenyl)pyrrolidin-1-yl)methanone]
1 μM test compound
  % increase in LDL Uptake: 4%
10 μM test compound
  % increase in LDL Uptake: 31%
30 μM test compound
  % increase in LDL Uptake: 25%

## CCOC1(c2ccc(C(=O)N3CC4=C(C3)CN(c3ccc(C(F)(F)F)cc3)C4)cc2)COC1 [Example 104, (4-(3-ethoxyoxetan-3-yl)phenyl)(5-(4-(trifluoromethyl)phenyl)-3,4,5,6-tetrahydropyrrolo[3,4-c]pyrrol-2(1H)-yl)methanone]
1 μM test compound
  % increase in LDL Uptake: 1%
10 μM test compound
  % increase in LDL Uptake: 30%
30 μM test compound
  % increase in LDL Uptake: 18%

## O=C(c1ccc(C2(O)COC2)cc1)N1CCc2cc(-c3ccc(C(F)(F)F)cc3)ccc21 [Example 107, (4-(3-hydroxyoxetan-3-yl)phenyl)(5-(4-(trifluoromethyl)phenyl)indolin-1-yl)methanone]
1 μM test compound
  % increase in LDL Uptake: 27%
10 μM test compound
  % increase in LDL Uptake: 0%
30 μM test compound
  % increase in LDL Uptake: 0%

## COC1(c2ccc(C(=O)N3CCC(c4ccc(C(F)(F)F)c(-n5cnc(C)c5)c4)CC3)cc2)COC1 [Example 108, (4-(3-methoxyoxetan-3-yl)phenyl)(4-(3-(4-methyl-1H-imidazol-1-yl)-4-(trifluoromethyl)phenyl)piperidin-1-yl)methanone]
1 μM test compound
  % increase in LDL Uptake: 9%
10 μM test compound
  % increase in LDL Uptake: 26%
30 μM test compound
  % increase in LDL Uptake: 32%

## CC(C)(CCCCCOC1(c2ccc(C(=O)N3CCC(c4ccc(C(F)(F)F)cc4)CC3)cc2)COC1)C(=O)O [Example 109, 2,2-dimethyl-7-((3-(4-(4-(4-(trifluoromethyl)phenyl)piperidine-1-carbonyl)phenyl)oxetan-3-yl)oxy)heptanoic acid]
1 μM test compound
  % increase in LDL Uptake: 5%
10 μM test compound
  % increase in LDL Uptake: 29%
30 μM test compound
  % increase in LDL Uptake: 31%

## N#CC1(c2ccc(C(F)(F)F)cc2)CCN(C(=O)c2ccc(C3(O)COC3)cc2)CC1 [Example 116, 1-(4-(3-hydroxyoxetan-3-yl)benzoyl)-4-(4-(trifluoromethyl)phenyl)piperidine-4-carbonitrile]
1 μM test compound
  % increase in LDL Uptake: 7%
10 μM test compound
  % increase in LDL Uptake: 35%
30 μM test compound
  % increase in LDL Uptake: 98%

## O=C(c1cccc(C2(O)COC2)c1)N1CCC(c2ccc(C(F)(F)F)c(F)c2)CC1 [Example 121, (4-(3-fluoro-4-(trifluoromethyl)phenyl)piperidin-1-yl)(3-(3-hydroxyoxetan-3-yl)phenyl)methanone]
1 μM test compound
  % increase in LDL Uptake: 0%
10 μM test compound
  % increase in LDL Uptake: 22%
30 μM test compound
  % increase in LDL Uptake: 18%

## O=C(c1cccc(C2(O)COC2)c1)N1CCC(c2ccccc2C(F)(F)F)CC1 [Example 122, (3-(3-hydroxyoxetan-3-yl)phenyl)(4-(2-(trifluoromethyl)phenyl)piperidin-1-yl)methanone]
1 μM test compound
  % increase in LDL Uptake: 0%
10 μM test compound
  % increase in LDL Uptake: 16%
30 μM test compound
  % increase in LDL Uptake: 12%

## CCOC1(c2ccc(C(=O)N3CCCC(c4ccc(C(F)(F)F)cc4)C3)cc2)COC1 (stereo not drawn) [Example 123, (4-(3-ethoxyoxetan-3-yl)phenyl)(3-(4-(trifluoromethyl)phenyl)piperidin-1-yl)methanone]
1 μM test compound
  % increase in LDL Uptake: 0%
10 μM test compound
  % increase in LDL Uptake: 14%
30 μM test compound
  % increase in LDL Uptake: 30%

## Cc1ccc(C2=CC3CN(C(=O)c4ccc(C5(O)COC5)cc4)CC3C2)cc1 (stereo not drawn) [Example 130, (4-(3-hydroxyoxetan-3-yl)phenyl)(5-(p-tolyl)-3,3a,6,6a-tetrahydrocyclopenta[c]pyrrol-2(1H)-yl)methanone]
1 μM test compound
  % increase in LDL Uptake: −19%
10 μM test compound
  % increase in LDL Uptake: 20%
30 μM test compound
  % increase in LDL Uptake: 74%

## CSc1ccc(C2=CC3CN(C(=O)c4ccc(C5(O)COC5)cc4)CC3C2)cc1 (stereo not drawn) [Example 131]
1 μM test compound
  % increase in LDL Uptake: −5%
10 μM test compound
  % increase in LDL Uptake: 57%
30 μM test compound
  % increase in LDL Uptake: −1%

## O=C(c1ccc(C2(OCC3CC3)COC2)cc1)N1CC2CN(c3ccc(C(F)(F)F)cc3)CC2C1 (stereo not drawn) [Example 133, (4-(3-(cyclopropylmethoxy)oxetan-3-yl)phenyl)(5-(4-(trifluoromethyl)phenyl)hexahydropyrrolo[3,4-c]pyrrol-2(1H)-yl)methanone]
1 μM test compound
  % increase in LDL Uptake: 22%
10 μM test compound
  % increase in LDL Uptake: 28%
30 μM test compound
  % increase in LDL Uptake: 32%
